Assay [1] deals with T1, 5-HT1A receptor (Cavia porcellus, UniProt A0A286Y074).
T1 construct: guinea-pig ileum in vitro; from tissue; host or cells: guinea-pig ileum
T1 sequence (A0A286Y074 1-421): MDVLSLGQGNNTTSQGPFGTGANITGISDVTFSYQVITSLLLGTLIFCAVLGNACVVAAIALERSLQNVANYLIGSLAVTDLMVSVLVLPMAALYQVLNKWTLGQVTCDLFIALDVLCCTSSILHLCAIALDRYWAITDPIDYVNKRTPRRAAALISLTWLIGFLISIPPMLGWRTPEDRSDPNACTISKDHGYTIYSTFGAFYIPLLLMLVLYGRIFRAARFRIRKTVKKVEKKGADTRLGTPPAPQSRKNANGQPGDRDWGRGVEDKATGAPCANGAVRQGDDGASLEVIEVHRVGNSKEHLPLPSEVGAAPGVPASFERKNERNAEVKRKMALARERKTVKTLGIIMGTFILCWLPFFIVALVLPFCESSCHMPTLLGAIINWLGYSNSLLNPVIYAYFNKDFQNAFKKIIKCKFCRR
The assay can be described thus: 5-HT1A receptor antagonism: antagonism of 5-carboxamidotryptamine in the guinea-pig ileum in vitro. As to conditions: read-out: pA2 (converted). As for the experimental part:
The compounds are tested for 5-HT1A receptor antagonism activity in a test involving the antagonism of 5-carboxamidotryptamine in the guinea-pig ileum in vitro (based upon the procedure of Fozard et al, Br J Pharmac, 1985, 86, 601P ).

Assay [2] concerns the target T2, 5-HT1A receptor (Rattus norvegicus, UniProt P19327).
T2 construct: rat hippocampal membrane homogenate; from tissue; host or cells: rat hippocampal membrane homogenate
T2 sequence (P19327 1-422): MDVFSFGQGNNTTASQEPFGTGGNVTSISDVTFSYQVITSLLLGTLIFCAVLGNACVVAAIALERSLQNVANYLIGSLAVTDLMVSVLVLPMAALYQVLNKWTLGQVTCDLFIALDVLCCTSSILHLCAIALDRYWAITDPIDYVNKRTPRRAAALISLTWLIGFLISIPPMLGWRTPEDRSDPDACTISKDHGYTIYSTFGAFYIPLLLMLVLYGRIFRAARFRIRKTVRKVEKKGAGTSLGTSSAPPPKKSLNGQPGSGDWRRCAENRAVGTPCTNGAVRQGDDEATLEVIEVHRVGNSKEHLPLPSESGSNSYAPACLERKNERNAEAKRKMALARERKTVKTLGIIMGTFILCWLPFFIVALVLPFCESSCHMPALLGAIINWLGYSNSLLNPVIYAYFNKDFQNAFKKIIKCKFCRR
The assay can be described thus: 5-HT1A receptor binding activity in rat hippocampal membrane homogenate. As for the experimental part:
The compounds of the invention were tested for 5-HT1A receptor binding activity in rat hippocampal membrane homogenate by the method of B S Alexander and M D Wood, J Pharm Pharmacol, 1988, 40, 888-891.

These results are taken from patent US5532242A, “Piperazine derivatives as 5-HT receptors antagonists” (John Wyeth & Brother, Limited, priority 1992, dated 1996).

For `COc1ccccc1N1CCN(CCN(C(=O)C2CCCCC2)c2ccccc2)CC1` [Example 2, N-(2-(4-(2-Methoxyphenyl)piperazin-1-yl)ethyl)-N-phenylcyclohexanecarboxamide], the Kb in assay [1] was 6.31 nM. The same molecule showed an IC50 in assay [2] of 4 nM.
